What was measured:
Assay type in all cases: cell-based
[1] = system: Rhizomucor miehei; assay: Antifungal activity in vitro, resazurin growth inhibition: Rhizomucor miehei (IHEM13391)
Method in brief: (§1)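 Compound dilutions, with 64 μM as the highest in-test level, are spotted onto plates, then an inoculum of 10^3 cfu in RPMI-1640 plus 2% glucose (MOPS, pH 7.0±0.1) is added. Plates are incubated at species-dependent time and temperature, up to a week or more at 27° C. for dermatophytes.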

[2] = system: Scedosporium apiospermum; assay: Antifungal activity in vitro, resazurin growth inhibition: Scedosporium apiospermum (IHEM3817)
Method in brief: as §1

[3] = system: Cryptococcus neoformans; assay: Antifungal activity in vitro, resazurin growth inhibition: Cryptococcus neoformans (B66663)
Method in brief: as §1

[4] = system: Sporothrix schenkii; assay: Antifungal activity in vitro, resazurin growth inhibition: Sporothrix schenkii (B62482)
Method in brief: as §1

[5] = system: Scedosporium prolificans; assay: Antifungal activity in vitro, resazurin growth inhibition: Scedosporium prolificans (IHEM21157)
Method in brief: as §1

[6] = system: Trichophyton mentagrophytes; assay: Antifungal activity in vitro, resazurin growth inhibition: Trichophyton mentagrophytes (B70554)
Method in brief: (§2)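 Broth microdilution: RPMI-1640/L-Gln/2% glucose, MOPS pH 7.0±0.1; 10^3 cfu/well; top concentration 64 μM, 2- or 4-fold steps. Dermatophytes at 27° C., one week or more. Resazurin 0.005% (w/v) added, fluorescence 550/590 nm.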

[7] = system: Trichophyton rubrum; assay: Antifungal activity in vitro, resazurin growth inhibition: Trichophyton rubrum (B68183)
Method in brief: as §2

[8] = system: Candida parapsilosis; assay: Antifungal activity in vitro, resazurin growth inhibition: Candida parapsilosis (B66126)
Method in brief: as §1

[9] = system: Rhizopus oryzae; assay: Antifungal activity in vitro, resazurin growth inhibition: Rhizopus oryzae (IHEM5223)
Method in brief: as §1

[10] = system: Aspergillus fumigatus; assay: Antifungal activity in vitro, resazurin growth inhibition: Aspergillus fumigatus (B42928)
Method in brief: as §1

[11] = system: Microsporum canis; assay: Antifungal activity in vitro, resazurin growth inhibition: Microsporum canis (B68128)
Method in brief: as §2

Row | SMILES | Inf. K: Rhizomucor miehei IHEM13391, pIC50 [1] | Inf. H: Scedosporium apiospermum IHEM3817, pIC50 [2] | Inf. F: Cryptococcus neoformans B66663, pIC50 [3] | Inf. A: Sporothrix schenkii B62482, pIC50 [4] | Inf. I: Scedosporium prolificans IHEM21157, pIC50 [5] | Inf. G: Trichophyton mentagrophytes B70554, pIC50 [6] | Inf. C: Trichophyton rubrum B68183, pIC50 [7] | Inf. D: Candida parapsilosis B66126, pIC50 [8] | Inf. J: Rhizopus oryzae IHEM5223, pIC50 [9] | Inf. E: Aspergillus fumigatus B42928, pIC50 [10] | Inf. B: Microsporum canis B68128, pIC50 [11]
1 | CC(=O)c1ccc(C2=NCc3c(Cl)cccc3-n3cccc32)cn1 [Compound 92] | <4.19 | <4.19 | <4.19 | <4.19 | <4.19 | <4.19 | 6.09 | <4.19 | <4.19 | <4.19 | <4.19
2 | Fc1ccc2oc(C3=NCc4ccc(Cl)cc4-n4cccc43)cc2c1 [Compound 124] | <4.19 | <4.19 | 6.32 | 5.10 | 5.90 | 5.75 | 6.22 | <4.19 | 5.08 | 6.25 | 5.63
3 | Clc1cccc2c1CN=C(c1cc3ccccc3s1)c1cccn1-2 [Compound 165] | <4.19 | <4.19 | 5.81 | 5.12 | 4.46 | 5.86 | 6.70 | <4.19 | <4.19 | 5.28 | 6.19
4 | Cc1ccc2cc(C3=NCc4ccccc4-n4cccc43)oc2c1 [Compound 137] | 4.50 | 5.16 | 5.10 | 5.52 | 6.21 | 6.89 | 7.18 | 4.74 | 4.48 | 6.00 | 6.81
5 | Cc1cccc2c1-n1cccc1C(c1cc3ccccc3o1)=NC2 [Compound 117] | 4.80 | 4.80 | 5.77 | 5.74 | 5.97 | 6.43 | 7.07 | <4.19 | <4.19 | 5.98 | 6.52
6 | COc1cccc2cc(C3=NCc4c(C)cccc4-n4cccc43)oc12 [Compound 144] | 4.44 | 4.71 | 5.31 | 5.69 | 6.26 | 7.45 | >8.41 | 4.57 | <4.19 | 5.62 | 6.49
7 | Fc1ccc2oc(C3=NCc4c(Cl)cc(Cl)cc4-n4cccc43)cc2c1 [Compound 125] | <4.19 | 5.31 | 5.69 | 4.91 | 6.05 | 5.55 | 5.72 | <4.19 | <4.19 | 5.70 | 5.85
